PubChem BioAssay (NCI)
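Growth conditions: 96-well plates. Treatment: test compound, 48 hours, 5 concentrations. Analysis: linear interpolation between bracketing concentrations; unreached endpoints set to highest concentration. At the TGI there is no net growth.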 Where a SMILES comes first, the peptide text is derived from it. The star is where a group is joined. Cbz = O=C(OCc1ccccc1)*; NHNH2 = NN*

Key:
Assay in all cases: DTP human tumour cell line panel, 48 h
[1] = system: 786-0 renal
[2] = system: SNB-75 CNS
[3] = system: SK-OV-3 ovarian
[4] = system: UACC-257 melanoma
[5] = system: MALME-3M melanoma
[6] = system: A498 renal
[7] = system: HCT-15 colon
[8] = system: SK-MEL-2 melanoma
[9] = system: HT29 colon
[10] = system: MDA-MB-231 breast

Row | SMILES | TGI [1] [µM] | TGI [2] [µM] | TGI [3] [µM] | TGI [4] [µM] | TGI [5] [µM] | TGI [6] [µM] | TGI [7] [µM] | TGI [8] [µM] | TGI [9] [µM] | TGI [10] [µM]
1 | CC(C)(C)C1CCC2(CC1)c1[nH]c3ccccc3c1C1(CCC(C(C)(C)C)CC1)c1[nH]c3ccccc3c12 (centres undefined) | > 100 | > 100 | > 100 | > 100 | > 100 | > 100 | > 100 | > 100 | > 100 | –
2 | O=C(N/N=C/c1ccco1)c1cc(I)cc(I)c1O | 37.4 | > 50 | – | – | > 50 | 32.8 | > 50 | 19.7 | > 50 | –
3 | COc1c(Br)cc(CC(N)=O)c(O)c1Br | – | > 100 | > 100 | > 100 | > 100 | > 100 | – | > 100 | > 100 | –
4 | O=C(CSc1n[nH]c(=O)[nH]c1=O)NNC(=O)c1cccc2nc3ccccc3nc12 | > 100 | – | > 100 | > 100 | 87.8 | > 100 | > 100 | > 100 | > 100 | > 100
5 | Nc1ccc(S(=O)(=O)Nc2nc3ccccc3nc2N2CCCCC2)cc1 | > 100 | > 100 | > 100 | > 100 | > 100 | – | > 100 | > 100 | > 100 | > 100
6 | CNC(=O)N(CCC#N)[C@H]1CCCC[C@@H]1N(C(=O)NC)c1ccccc1 | > 100 | > 100 | > 100 | > 100 | > 100 | – | > 100 | > 100 | > 100 | > 100
7 | Nc1ccc2[nH]c(-c3cccc(Cl)c3)cc(=O)c2c1 | > 100 | > 100 | > 100 | > 100 | > 100 | – | > 100 | – | 29.5 | > 100
8 | COc1ccc2c(c1)CN1C(=N2)CSC1c1ccccc1Cl (centres undefined) | 34.5 | 48.8 | 79.2 | 28.8 | 47.9 | – | 38.9 | 37.3 | 32.8 | 67.5
9 | CC1(CNCc2ccccc2)CC(CCc2ccccc2)N(C(=O)c2ccc([N+](=O)[O-])cc2)C1Cc1ccc(O)cc1 (centres undefined) | 25.9 | – | 34.6 | 27 | 33.6 | 26.7 | 26.3 | 32.7 | 22 | 24.4
10 | O=C(Cc1ccc([N+](=O)[O-])cc1)OCC#CCOC(=O)Cc1ccc([N+](=O)[O-])cc1 | > 10 | > 10 | > 10 | > 10 | > 10 | – | > 10 | > 10 | > 10 | > 10
11 | Cn1c2ccccc2n2c(=O)c3cc([N+](=O)[O-])ccc3c(C#N)c12 | > 100 | > 100 | > 100 | > 100 | – | – | > 100 | > 100 | > 100 | –
12 | Cc1cc2[nH]c3c(C#N)c4c(c(=O)n3c2cc1C)CCCC4 | > 100 | – | 27.1 | > 100 | > 100 | > 100 | > 100 | > 100 | > 100 | > 100
13 | Cc1cn(C(C)OCCN2C(=O)c3ccccc3C2=O)c(=O)[nH]c1=O (centres undefined) | > 100 | > 100 | – | > 100 | – | > 100 | > 100 | > 100 | > 100 | > 100
14 | CCOC(=O)C1=C(OC(OCC)C(CC)[Se]c2ccccc2)CCCC1 (centres undefined) | 28.9 | 54.8 | > 100 | > 100 | 97.7 | > 100 | 41.2 | 43 | 62 | –
15 | COc1ccc2cc(NC(=O)N/N=C\c3ccc(Cl)cc3)ccc2c1 | > 100 | > 100 | > 100 | > 100 | > 100 | – | > 100 | > 100 | > 100 | > 100
16 | Brc1cc2nn(-c3ccccc3)nc2c2nonc12 | > 100 | > 100 | > 100 | > 100 | > 100 | – | > 100 | > 100 | > 100 | > 100
17 | O=C1C=CC(=O)c2c(O)c(NCCc3ccc(O)cc3)c(Cl)c(O)c21 | > 10 | > 10 | > 10 | > 10 | > 10 | – | > 10 | > 10 | > 10 | > 10
18 | NC(=O)C(=CNC(=S)c1ccncc1)C(N)=O | > 100 | – | > 100 | > 100 | – | – | > 100 | > 100 | > 100 | > 100

Row | SMILES | TGI [1] [µM] | TGI [2] [µM] | TGI [3] [µM] | TGI [4] [µM] | TGI [5] [µM] | TGI [6] [µM] | TGI [7] [µM] | TGI [8] [µM] | TGI [9] [µM] | TGI [10] [µM]
19 | COC(=O)C1=Nc2c(C)nn(-c3ccccc3)c2N=C(c2ccc([N+](=O)[O-])cc2)C1 | > 10 | > 10 | > 10 | > 10 | > 10 | – | > 10 | – | > 10 | > 10
20 | Nc1c(C(=O)c2ccc(Cl)cc2)[nH]c(NCc2ccccc2)c1C(=S)Nc1ccccc1 | 3.14 | 3.33 | 49.8 | 3.26 | – | 23 | 3.36 | 3.58 | 3.7 | 3.91
21 | COC1(OC)CCCCC2c3cccc(OC(C)=O)c3C21OC(C)=O (centres undefined) | > 100 | > 100 | > 100 | > 100 | > 100 | – | > 100 | > 100 | > 100 | –
22 | CCOC(=O)/C(C#N)=N\Nc1ccc(-n2c(C)nc3ccccc3c2=O)cc1 | > 100 | > 100 | > 100 | > 100 | – | > 100 | > 100 | > 100 | > 100 | > 100
23 | OC1(c2ccc(Cl)cc2)c2ccc3ccccc3c2C2=N[C@H]3CCCC[C@@H]3N21 (some centres undefined) | – | – | 65.3 | – | 0.93 | 52.7 | 28.3 | > 100 | – | > 100
24 | O=C1NC2OC(CO)C(O)C(O1)C2O (centres undefined) | > 100 | > 100 | > 100 | > 100 | > 100 | > 100 | > 100 | > 100 | > 100 | –
25 | NC(=O)c1cc2ccccc2o/c1=N/O | > 100 | > 100 | > 100 | > 100 | – | – | > 100 | > 100 | > 100 | > 100
26 | Brc1cccc(N=NN2CCCC2)c1 | > 100 | > 100 | > 100 | > 100 | – | > 100 | > 100 | > 100 | – | > 100
27 | COC(=O)C1CC2(c3ccccc3)C(=O)c3ccccc3N2O1 (centres undefined) | > 100 | > 100 | > 100 | > 100 | > 100 | > 100 | > 100 | > 100 | > 100 | –
28 | COc1cc2c(/C=C3/C(=O)Nc4ccccc43)c(Cl)[nH]c2cc1C | 13.9 | 17.9 | 0.141 | > 45.8 | – | 19.8 | 11 | 25.4 | 1.05 | 4.89
29 | O=C(O)C(CO)NC(=O)n1c2ccccc2c2ccccc21 (centres undefined) | > 100 | – | > 100 | > 100 | > 100 | – | > 100 | > 100 | > 100 | –
30 | CC1(C)OCC2OC3([C@H]4OC(C)(C)O[C@@H]4CO)OC(C)(C)OC3C2O1 (some centres undefined) | > 100 | > 100 | – | > 100 | – | > 100 | > 100 | > 100 | > 100 | > 100
31 | O=C(Nc1cccc(O)c1)C(=O)C(C(=O)c1ccccc1F)C1OC(=O)c2ccccc21 (centres undefined) | – | 53.1 | > 100 | > 100 | – | > 100 | 49.2 | 62.2 | > 100 | –
32 | O=c1c2ccccc2nc(Nc2cccc(Cl)c2)n1/N=C/C=C/c1ccccc1 | > 100 | > 100 | > 100 | > 100 | > 100 | – | > 100 | > 100 | > 100 | > 100
33 | C=CCOCCCCC(C(C)=O)C(=O)OC (centres undefined) | > 100 | > 100 | > 100 | > 100 | > 100 | > 100 | > 100 | > 100 | > 100 | –
34 | COC(=O)CC(NC(=O)OCc1ccccc1)C(=O)NC(CC(=O)OC)C(=O)NC(CC(=O)OC)C(=O)NC(CC(=O)OC)C(=O)NC(CC(=O)OC)C(=O)NC(CC(=O)OC)C(=O)NN (centres undefined) (Cbz-D(OMe)D(OMe)D(OMe)D(OMe)D(OMe)D(OMe)-NHNH2; configuration not given here) | > 100 | > 100 | > 100 | > 100 | – | – | > 100 | > 100 | > 100 | > 100
35 | O=C(CC1=NCCN1)c1ccccc1 | – | > 750 | > 750 | > 750 | > 750 | > 75 | > 750 | > 750 | > 750 | –
36 | COc1ccc(Nc2nc3c([nH]2)c(=O)n(C)c(=O)n3C)cc1 | > 10 | > 10 | > 10 | > 10 | > 10 | – | > 10 | – | > 10 | > 10
